Source: article PMC10311525, “Restricting Promiscuity of Plant Flavonoid 3′-Hydroxylase and 4′-O-Methyltransferase Improves the Biosynthesis of (2S)-Hesperetin in E. coli” (Journal of Agricultural and Food Chemistry, 2023)

Experiments:
Assay in all cases: whole-cell conversion, HPLC
Format in all cases: cell-based
[1] = target: T1, MpOMT (Mentha x piperita, UniProt Q6VMV8, F133A); conditions: 100 mg/L fed, 12 h, 23 °C; product (2S)-hesperetin
T1 construct: gene OMT4

[2] = target: T2, MpOMT (Mentha x piperita, UniProt Q6VMV8, S142A); conditions: 100 mg/L fed, 12 h, 23 °C; product (2S)-hesperetin
T2 construct: gene OMT4

[3] = target: T3, trThF3′H with CPR (Tricyrtis hirta, UniProt B9A9Y6); conditions: 100 mg/L fed, 12 h, 23 °C; product (2S)-eriodictyol; full-length CPR co-expressed
T3 construct: gene F3'H; 24-aa N-terminally truncated F3'H co-expressed with full-length Arabidopsis thaliana CPR from pETDuet-1 (pGH10) in E. coli BL21(DE3); whole-cell conversion; with NADPH--cytochrome P450 reductase 2 (Arabidopsis thaliana)
T3 sequence (B9A9Y6 25-505): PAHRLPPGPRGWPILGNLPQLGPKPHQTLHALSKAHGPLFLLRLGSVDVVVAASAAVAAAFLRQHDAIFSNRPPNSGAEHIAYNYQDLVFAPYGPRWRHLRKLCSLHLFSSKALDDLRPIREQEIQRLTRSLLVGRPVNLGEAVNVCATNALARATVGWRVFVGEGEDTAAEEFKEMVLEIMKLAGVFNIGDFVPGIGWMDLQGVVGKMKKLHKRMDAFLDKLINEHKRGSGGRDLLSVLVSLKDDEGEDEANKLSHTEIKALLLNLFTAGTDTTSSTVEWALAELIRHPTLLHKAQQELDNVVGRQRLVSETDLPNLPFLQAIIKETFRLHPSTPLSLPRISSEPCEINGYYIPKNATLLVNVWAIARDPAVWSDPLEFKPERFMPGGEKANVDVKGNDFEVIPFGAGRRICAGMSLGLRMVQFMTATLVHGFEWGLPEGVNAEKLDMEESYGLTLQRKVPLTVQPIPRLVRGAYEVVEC
T3 sequence (Q9SUM3 whole entry partner, the tested form may be a part): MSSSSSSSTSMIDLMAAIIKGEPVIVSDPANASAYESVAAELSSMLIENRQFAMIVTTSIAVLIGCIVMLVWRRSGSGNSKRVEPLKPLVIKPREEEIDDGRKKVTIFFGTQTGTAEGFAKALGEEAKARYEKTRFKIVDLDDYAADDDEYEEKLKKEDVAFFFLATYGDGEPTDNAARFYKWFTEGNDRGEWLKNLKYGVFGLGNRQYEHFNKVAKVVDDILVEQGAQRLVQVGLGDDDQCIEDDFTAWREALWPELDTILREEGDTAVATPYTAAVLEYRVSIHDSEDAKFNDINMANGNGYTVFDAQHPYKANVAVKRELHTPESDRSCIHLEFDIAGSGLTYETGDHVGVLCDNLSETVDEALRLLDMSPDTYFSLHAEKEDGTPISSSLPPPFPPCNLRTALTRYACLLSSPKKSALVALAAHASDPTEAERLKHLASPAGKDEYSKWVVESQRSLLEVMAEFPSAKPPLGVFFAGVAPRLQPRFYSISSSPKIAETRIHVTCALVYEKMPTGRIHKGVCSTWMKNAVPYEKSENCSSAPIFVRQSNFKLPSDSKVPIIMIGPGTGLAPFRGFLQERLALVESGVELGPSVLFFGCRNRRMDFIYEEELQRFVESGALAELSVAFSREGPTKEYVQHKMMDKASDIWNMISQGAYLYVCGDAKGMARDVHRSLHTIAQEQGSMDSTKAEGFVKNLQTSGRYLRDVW

T1 sequence (Q6VMV8 whole entry F133A): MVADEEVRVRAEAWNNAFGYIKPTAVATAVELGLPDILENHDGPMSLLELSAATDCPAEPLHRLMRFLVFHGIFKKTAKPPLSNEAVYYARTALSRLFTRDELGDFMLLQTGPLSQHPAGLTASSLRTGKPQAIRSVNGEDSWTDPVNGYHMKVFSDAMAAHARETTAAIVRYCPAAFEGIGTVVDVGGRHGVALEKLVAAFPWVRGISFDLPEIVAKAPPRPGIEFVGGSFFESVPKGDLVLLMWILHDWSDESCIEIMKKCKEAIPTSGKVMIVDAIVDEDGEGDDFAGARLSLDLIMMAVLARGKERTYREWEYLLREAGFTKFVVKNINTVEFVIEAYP
T2 sequence (Q6VMV8 whole entry S142A): as the sequence (Q6VMV8 whole entry F133A) above, with A133F, S142A counted along it

| Compound | whole-cell conversion, HPLC [1] | whole-cell conversion, HPLC [2] | whole-cell conversion, HPLC [3] |
| --- | --- | --- | --- |
| O=C1C[C@@H](c2ccc(O)c(O)c2)Oc2cc(O)cc(O)c21 [(2S)-eriodictyol] | three mutants (F115A, F133A, and S142A), which displayed significantly higher conversion rates | three mutants (F115A, F133A, and S142A), which displayed significantly higher conversion rates |  |
| O=C1C[C@@H](c2ccc(O)cc2)Oc2cc(O)cc(O)c21 [(2S)-naringenin] |  |  | the one harboring trThF3′H and CPR exhibited the highest (2S)-eriodictyol production |
